Reference: patent US10168342B2, “Lipid probes and uses thereof” (THE SCRIPPS RESEARCH INSTITUTE, priority 2015, dated 2019)

Experiments:
human NUCB1 = molecular target: T1, human NUCB1 (Homo sapiens, UniProt Q02818); assay: FluoPol assay / high throughput screen with Fl-AEA and recombinant NUCB1; format: binding; conditions: competitor lipids, recombinant NUCB1
T1 construct: made in house; host or cells: Escherichia coli BL21(DE3)
T1 sequence (Q02818 27-461): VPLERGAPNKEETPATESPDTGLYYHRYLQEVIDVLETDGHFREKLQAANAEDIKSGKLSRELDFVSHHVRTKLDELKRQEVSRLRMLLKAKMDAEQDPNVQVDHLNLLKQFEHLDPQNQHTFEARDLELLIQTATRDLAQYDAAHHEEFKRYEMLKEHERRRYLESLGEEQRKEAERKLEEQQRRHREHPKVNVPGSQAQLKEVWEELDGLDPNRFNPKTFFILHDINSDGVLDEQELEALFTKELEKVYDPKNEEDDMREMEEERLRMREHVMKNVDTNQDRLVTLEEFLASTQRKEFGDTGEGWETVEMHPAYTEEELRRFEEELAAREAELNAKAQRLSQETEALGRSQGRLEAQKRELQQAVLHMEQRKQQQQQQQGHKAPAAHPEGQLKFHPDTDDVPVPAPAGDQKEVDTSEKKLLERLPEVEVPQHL
Description: FluoPol conditions were optimized by screening various concentrations of Fl-AEA, hNUCB1, CaCl2 and Pluronic F-127 against positive and negative controls. Arachidonic acid (20 μM final) was used as a positive control, and DMSO as a negative. Additionally, protein-free controls were used to normalize for background signal. […] The Z′-factor for these conditions was determined to be 0.54, indicating a high signal to noise assay.
A 10 μL solution of hNUCB1 (1 μM), Fl-AEA (0.5 μM), CaCl2 (20 μM), and Pluronic F-127 (0.01%) was added to a Greiner 384-well plate. Additionally, in some wells protein was omitted to serve as a blank control for background signal. To the protein containing wells 16,000 compounds (50 nL in DMSO, 2 mM) from the Maybridge Hitfinder library were added by a pin-tool robot. Additionally, on each plate to some wells arachidonic acid (20 μM final) or DMSO were added as positive and negative controls to allow normalization between plates. The plates were allowed to incubate for 5 minutes at room temperature, then fluorescence polarization was measured by measuring fluorescence intensity through polarized 595 nm filters. Hits were selected based on maximal probe competition.

[1] = molecular target: AEA-DA lipid probe targets in A549 cells (Homo sapiens, UniProt P45880); assay: In situ competitive SILAC profiling with AEA-DA probe in A549 cells; conditions: competitor 25 μM
[2] = molecular target: AEA-DA lipid probe targets in A549 cells (Homo sapiens, UniProt Q53GQ0); assay: as above; conditions: competitor 25 μM
lipids of Neuro2a cells = assay: Untargeted metabolomics (lipidomic profiling) of Neuro2a cells; format: cell-based, mouse; conditions: 10 μM, 6 h
Description: Discovery metabolite profiling was performed as described by Saghatelian et al., “Assignment of endogenous substrates to enzymes by global metabolite profiling,” Biochemistry 43:14332-14339 (2004) with several modifications. […] The media from the cells was removed and cells were washed with DPBS (2×5.0 mL) before adding freshly prepared media solutions containing vehicle or compound. After incubating for 6 h at 37° C. and subsequent removal of the media, the cells were harvested by scrapping in cold DPBS (3 mL) and pelleted by centrifugation in glass vials. The pellets were washed once with cold DPBS (3 mL) and then cold […] (2:1) (3 mL) was added. After vortexing, the vials were centrifuged (3,000×g, 10 min, 4° C.) and the bottom (organic) layer was transferred to a new glass vial and concentrated under a stream of N2. Samples were stored at −80° C. until the day of analysis when they were reconstituted in Mobile Phase A (100 μL, see below).
Lipid extracts were analyzed by LC/MS in both positive and negative modes using an Agilent 6520 QTOF instrument and LC separation performed on a Kinetex reversed phase C18 column (50×4.6 mm, 2.6 μm particle size, 100Å). Mobile phase A was composed of 5:1:4 isopropanol:methanol:water and Mobile phase B was composed of 99:1 isopropanol:water. Both mobile phases also contained 0.1% AcOH and NH4OAc (5 mM) to facilitate ionization and LC separation. […] To minimize carryover, LC solvents were cycled between 100% Mobile Phase A and 100% Mobile Phase B over 5 min after each run. Data analysis was performed using XCMS (Smith et al., 2006) software which is freely available online (http://xcmsonline.scripps.edu).

[3] = Neg, m/z 716.52, RT 32.28 min, versus DMSO
[4] = Neg, m/z 721.50, RT 30.94 min, versus DMSO
[5] = Neg, m/z 786.53, RT 31.97 min, versus DMSO
[6] = Neg, m/z 788.54, RT 34.16 min, versus DMSO
[7] = Neg, m/z 808.51, RT 30.14 min, versus DMSO
[8] = Pos, m/z 788.61, RT 35.81 min, versus DMSO

AEA-DA lipid probe targets in A549 cells (Homo sapiens, UniProt P45880), sequence (P45880 whole entry): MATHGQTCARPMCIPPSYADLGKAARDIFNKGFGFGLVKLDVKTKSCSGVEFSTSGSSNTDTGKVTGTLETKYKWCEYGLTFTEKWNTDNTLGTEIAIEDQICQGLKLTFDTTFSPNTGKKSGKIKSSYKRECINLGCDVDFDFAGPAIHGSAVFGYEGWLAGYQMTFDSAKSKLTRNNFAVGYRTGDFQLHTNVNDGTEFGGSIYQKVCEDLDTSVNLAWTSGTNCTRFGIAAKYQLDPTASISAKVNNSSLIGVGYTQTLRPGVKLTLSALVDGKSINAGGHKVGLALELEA
AEA-DA lipid probe targets in A549 cells (Homo sapiens, UniProt Q53GQ0), sequence (Q53GQ0 whole entry): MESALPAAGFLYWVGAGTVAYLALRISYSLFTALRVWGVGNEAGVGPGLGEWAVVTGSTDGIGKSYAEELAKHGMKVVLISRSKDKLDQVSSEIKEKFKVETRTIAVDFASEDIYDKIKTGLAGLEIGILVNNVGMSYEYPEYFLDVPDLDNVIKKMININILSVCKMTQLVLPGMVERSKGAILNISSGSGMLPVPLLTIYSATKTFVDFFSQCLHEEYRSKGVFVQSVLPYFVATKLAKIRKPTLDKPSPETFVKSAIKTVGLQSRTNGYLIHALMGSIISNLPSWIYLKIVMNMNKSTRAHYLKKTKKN

CCCCC/C=C\C/C=C\C/C=C\C/C=C\CCCC(=O)NCCO [AEA, anandamide, reference compound]
suppression of the NUCB1-FluoPol signal (blockade of Fl-AEA binding) (human NUCB1): Concentration-dependent suppression

O=C(/C=C/c1cccnc1)NCCCCC1CCN(C(=O)c2ccccc2)CC1 [FK-866, reference compound]
SILAC ratio, VDAC2 (P45880) [1]: 0.9 | SILAC ratio, HSD17B12 (Q53GQ0) [2]: 0.8

CN1CCN(C(=O)c2[nH]c3ccc([N+](=O)[O-])cc3c2-c2ccccc2)CC1 [MJN228, (4-Methylpiperazin-1-yl)(5-nitro-3-phenyl-1H-indol-2-yl)methanone]
Fold Change, FFA 16:0 (lipids of Neuro2a cells; Neg, m/z 255.23, RT 14.24 min, versus DMSO): 1.17 fold | Fold Change, FFA 18:1 (lipids of Neuro2a cells; Neg, m/z 281.25, RT 15.75 min, versus DMSO): 1.23 fold | Fold Change, FFA 18:0 (lipids of Neuro2a cells; Neg, m/z 283.26, RT 20.89 min, versus DMSO): 1.22 fold | Fold Change, FFA 20:4 (lipids of Neuro2a cells; Neg, m/z 303.23, RT 12.39 min, versus DMSO): 1.17 fold | Fold Change, NAT 24:1 (lipids of Neuro2a cells; Neg, m/z 444.31, RT 9.31 min, versus DMSO): 2.51 fold | Fold Change, NAT 24:0 (lipids of Neuro2a cells; Neg, m/z 446.33, RT 13.76 min, versus DMSO): 2.29 fold | Fold Change, LPE 16:0 (lipids of Neuro2a cells; Neg, m/z 452.28, RT 5.02 min, versus DMSO): 1.25 fold | Fold Change, NAT 26:0 (lipids of Neuro2a cells; Neg, m/z 474.36, RT […], versus DMSO): 2.75 fold | Fold Change, LPE 18:1 (lipids of Neuro2a cells; Neg, m/z 478.29, RT 5.66 min, versus DMSO): 1.50 fold | Fold Change, LPE 18:0 (lipids of Neuro2a cells; Neg, m/z 480.31, RT 7.96 min, versus DMSO): 1.43 fold | Fold Change, feature m/z 596.39 (lipids of Neuro2a cells; Neg, m/z 596.39, RT […], versus DMSO): 2.02 fold | Fold Change, feature m/z 622.41 (lipids of Neuro2a cells; Neg, m/z 622.41, RT 12.66 min, versus DMSO): 2.06 fold | Fold Change, PA 34:1 (lipids of Neuro2a cells; Neg, m/z 673.48, RT 33.41 min, versus DMSO): 1.01 fold | Change (direction), PE 34:1 (lipids of Neuro2a cells; [3]): DOWN | Fold Change, PE 34:1 (lipids of Neuro2a cells; [3]): 1.35 fold | Change (direction), PG 32:0 (lipids of Neuro2a cells; [4]): DOWN | Fold Change, PG 32:0 (lipids of Neuro2a cells; [4]): 1.26 fold | Fold Change, PE 36:4 (lipids of Neuro2a cells; Neg, m/z 738.51, RT 33.92 min, versus DMSO): 1.46 fold | Fold Change, PG 34:1 (lipids of Neuro2a cells; Neg, m/z 747.52, RT 32.95 min, versus DMSO): 1.22 fold | Fold Change, PG 34:0 (lipids of Neuro2a cells; Neg, m/z 749.53, RT 34.04 min, versus DMSO): 1.24 fold | Fold Change, PS 34:1 (lipids of Neuro2a cells; Neg, m/z 760.51, RT 31.80 min, versus DMSO): 1.07 fold | Fold Change, PE 38:5 (lipids of Neuro2a cells; Neg, m/z 764.52, RT 35.18 min, versus DMSO): 1.02 fold | Fold Change, PE 38:4 (lipids of Neuro2a cells; Neg, m/z 766.54, RT 36.76 min, versus DMSO): 1.01 fold | Fold Change, PG 36:1 (lipids of Neuro2a cells; Neg, m/z 775.55, RT 34.70 min, versus DMSO): 1.02 fold | Change (direction), PS 36:2 (lipids of Neuro2a cells; [5]): DOWN | Fold Change, PS 36:2 (lipids of Neuro2a cells; [5]): 1.11 fold | Change (direction), PS 36:1 (lipids of Neuro2a cells; [6]): DOWN | Fold Change, PS 36:1 (lipids of Neuro2a cells; [6]): 1.03 fold | Change (direction), PS 38:5 (lipids of Neuro2a cells; [7]): DOWN | Fold Change, PS 38:5 (lipids of Neuro2a cells; [7]): 1.05 fold | elevation of metabolites (NAEs and NATs) versus DMSO (lipids of Neuro2a cells; Neuro2a cells, P<0.0001): ≥ 2 fold | Fold Change, NAE 18:1 (lipids of Neuro2a cells; Pos, m/z 326.30, RT 8.36 min, versus DMSO): 2.91 fold | Fold Change, NAE 18:0 (lipids of Neuro2a cells; Pos, m/z 328.32, RT 12.20 min, versus DMSO): 2.00 fold | Fold Change, MAG 16:0 (lipids of Neuro2a cells; Pos, m/z 331.28, RT 8.51 min, versus DMSO): 1.67 fold | Fold Change, MAG 18:1 (lipids of Neuro2a cells; Pos, m/z 358.30, RT 9.68 min, versus DMSO): 1.37 fold | Fold Change, feature m/z 371.10 (lipids of Neuro2a cells; Pos, m/z 371.10, RT 13.51 min, versus DMSO): 2.00 fold | Fold Change, LPC 18:1 (lipids of Neuro2a cells; Pos, m/z 522.35, RT 5.29 min, versus DMSO): 1.24 fold | Fold Change, LPC 18:0 (lipids of Neuro2a cells; Pos, m/z 524.37, RT 7.49 min, versus DMSO): 1.48 fold | Fold Change, LPC 20:4 (lipids of Neuro2a cells; Pos, m/z 544.34, RT 5.29 min, versus DMSO): 1.69 fold | Fold Change, feature m/z 669.22 (lipids of Neuro2a cells; Pos, m/z 669.22, RT 13.52 min, versus DMSO): 2.15 fold | Fold Change, feature m/z 704.21 (lipids of Neuro2a cells; Pos, m/z 704.21, RT 19.42 min, versus DMSO): 2.45 fold | Fold Change, feature m/z 705.21 (lipids of Neuro2a cells; Pos, m/z 705.21, RT 19.44 min, versus DMSO): 2.63 fold | Fold Change, feature m/z 743.24 (lipids of Neuro2a cells; Pos, m/z 743.24, RT 19.42 min, versus DMSO): 2.56 fold | Fold Change, feature m/z 744.24 (lipids of Neuro2a cells; Pos, m/z 744.24, RT 19.44 min, versus DMSO): 2.88 fold | Fold Change, feature m/z 745.24 (lipids of Neuro2a cells; Pos, m/z 745.24, RT 19.44 min, versus DMSO): 2.81 fold | Fold Change, PC 34:0 (lipids of Neuro2a cells; Pos, m/z 762.60, RT 36.86 min, versus DMSO): 1.00 fold | Fold Change, feature m/z 776.23 (lipids of Neuro2a cells; Pos, m/z 776.23, RT 25.46 min, versus DMSO): 2.50 fold | Fold Change, feature m/z 777.23 (lipids of Neuro2a cells; Pos, m/z 777.23, RT 25.48 min, versus DMSO): 2.52 fold | Fold Change, feature m/z 778.23 (lipids of Neuro2a cells; Pos, m/z 778.23, RT 25.47 min, versus DMSO): 2.41 fold | Fold Change, feature m/z 779.23 (lipids of Neuro2a cells; Pos, m/z 779.23, RT 25.47 min, versus DMSO): 2.59 fold | Change (direction), PC 36:1 (lipids of Neuro2a cells; [8]): DOWN | Fold Change, PC 36:1 (lipids of Neuro2a cells; [8]): 1.04 fold | Fold Change, feature m/z 817.26 (lipids of Neuro2a cells; Pos, m/z 817.26, RT 25.47 min, versus DMSO): 2.35 fold | Fold Change, feature m/z 818.26 (lipids of Neuro2a cells; Pos, m/z 818.26, RT 25.47 min, versus DMSO): 2.51 fold | Fold Change, feature m/z 819.26 (lipids of Neuro2a cells; Pos, m/z 819.26, RT 25.46 min, versus DMSO): 2.85 fold | Fold Change, feature m/z 820.26 (lipids of Neuro2a cells; Pos, m/z 820.26, RT 25.47 min, versus DMSO): 2.79 fold | Fold Change, feature m/z 850.25 (lipids of Neuro2a cells; Pos, m/z 850.25, RT 30.92 min, versus DMSO): 2.42 fold | Fold Change, feature m/z 851.25 (lipids of Neuro2a cells; Pos, m/z 851.25, RT 30.92 min, versus DMSO): 2.41 fold | Fold Change, feature m/z 852.25 (lipids of Neuro2a cells; Pos, m/z 852.25, RT 30.92 min, versus DMSO): 2.46 fold | Fold Change, feature m/z 853.25 (lipids of Neuro2a cells; Pos, m/z 853.25, RT 30.92 min, versus DMSO): 2.61 fold | Fold Change, feature m/z 924.27 (lipids of Neuro2a cells; Pos, m/z 924.27, RT 33.83 min, versus DMSO): 2.14 fold | Fold Change, feature m/z 925.27 (lipids of Neuro2a cells; Pos, m/z 925.27, RT 33.83 min, versus DMSO): 2.19 fold | Fold Change, feature m/z 926.27 (lipids of Neuro2a cells; Pos, m/z 926.27, RT 33.84 min, versus DMSO): 2.27 fold | Fold Change, feature m/z 927.27 (lipids of Neuro2a cells; Pos, m/z 927.27, RT 33.83 min, versus DMSO): 2.19 fold
